How the values were obtained:
[1] = biological target: B-Raf (Homo sapiens, UniProt P15056); experiment: Kinase activity assay, B-Raf; type: biochemical; conditions: read-out: activity toward kinase B-Raf, IC50
[2] = biological target: B-Raf V600E (Homo sapiens, UniProt P15056, V600E); experiment: Kinase activity assay, B-Raf V600E; type: biochemical; conditions: read-out: activity toward kinase B-Raf V600E, IC50
[3] = biological target: Src (Homo sapiens, UniProt P12931); experiment: Kinase activity assay, Src
Chain of Src (P12931 whole entry): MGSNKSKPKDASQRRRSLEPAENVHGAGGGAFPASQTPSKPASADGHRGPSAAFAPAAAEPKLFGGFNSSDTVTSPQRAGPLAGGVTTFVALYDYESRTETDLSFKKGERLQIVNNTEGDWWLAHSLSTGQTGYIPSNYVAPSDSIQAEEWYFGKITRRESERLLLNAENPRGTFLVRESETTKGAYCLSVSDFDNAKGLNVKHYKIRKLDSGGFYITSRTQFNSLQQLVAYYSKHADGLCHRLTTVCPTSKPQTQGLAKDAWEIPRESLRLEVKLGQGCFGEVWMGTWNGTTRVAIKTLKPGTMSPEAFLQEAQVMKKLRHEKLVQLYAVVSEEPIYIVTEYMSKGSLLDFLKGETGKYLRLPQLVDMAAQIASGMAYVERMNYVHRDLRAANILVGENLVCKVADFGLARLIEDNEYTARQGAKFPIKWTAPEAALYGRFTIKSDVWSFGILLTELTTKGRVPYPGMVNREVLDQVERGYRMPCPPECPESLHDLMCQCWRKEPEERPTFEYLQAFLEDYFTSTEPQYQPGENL

[4] = biological target: C-Raf (Homo sapiens, UniProt P04049); experiment: Kinase activity assay, C-Raf
Chain of C-Raf (P04049 whole entry): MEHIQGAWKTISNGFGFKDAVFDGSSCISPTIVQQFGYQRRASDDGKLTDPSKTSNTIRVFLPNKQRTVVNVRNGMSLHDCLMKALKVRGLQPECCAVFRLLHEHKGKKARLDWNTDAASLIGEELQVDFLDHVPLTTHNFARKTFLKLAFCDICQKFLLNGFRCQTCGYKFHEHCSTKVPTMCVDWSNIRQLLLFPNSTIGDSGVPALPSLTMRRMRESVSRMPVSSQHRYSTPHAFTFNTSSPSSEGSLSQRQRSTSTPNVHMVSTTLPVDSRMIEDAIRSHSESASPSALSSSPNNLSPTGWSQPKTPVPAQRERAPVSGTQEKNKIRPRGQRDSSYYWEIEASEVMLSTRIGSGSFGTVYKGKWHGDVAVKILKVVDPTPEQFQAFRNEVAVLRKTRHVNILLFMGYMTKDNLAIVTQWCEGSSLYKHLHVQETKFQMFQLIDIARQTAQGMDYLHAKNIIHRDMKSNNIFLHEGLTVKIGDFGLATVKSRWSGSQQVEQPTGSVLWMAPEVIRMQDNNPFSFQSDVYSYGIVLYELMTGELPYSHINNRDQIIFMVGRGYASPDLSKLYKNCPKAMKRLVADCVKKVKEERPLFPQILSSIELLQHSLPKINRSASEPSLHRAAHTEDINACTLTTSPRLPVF

[5] = biological target: TrkA (Homo sapiens, UniProt P04629); experiment: Kinase activity assay, TrkA
[6] = biological target: Kdr (Homo sapiens, UniProt P35968); experiment: Kinase activity assay, Kdr
Chain of Kdr (P35968 20-1356): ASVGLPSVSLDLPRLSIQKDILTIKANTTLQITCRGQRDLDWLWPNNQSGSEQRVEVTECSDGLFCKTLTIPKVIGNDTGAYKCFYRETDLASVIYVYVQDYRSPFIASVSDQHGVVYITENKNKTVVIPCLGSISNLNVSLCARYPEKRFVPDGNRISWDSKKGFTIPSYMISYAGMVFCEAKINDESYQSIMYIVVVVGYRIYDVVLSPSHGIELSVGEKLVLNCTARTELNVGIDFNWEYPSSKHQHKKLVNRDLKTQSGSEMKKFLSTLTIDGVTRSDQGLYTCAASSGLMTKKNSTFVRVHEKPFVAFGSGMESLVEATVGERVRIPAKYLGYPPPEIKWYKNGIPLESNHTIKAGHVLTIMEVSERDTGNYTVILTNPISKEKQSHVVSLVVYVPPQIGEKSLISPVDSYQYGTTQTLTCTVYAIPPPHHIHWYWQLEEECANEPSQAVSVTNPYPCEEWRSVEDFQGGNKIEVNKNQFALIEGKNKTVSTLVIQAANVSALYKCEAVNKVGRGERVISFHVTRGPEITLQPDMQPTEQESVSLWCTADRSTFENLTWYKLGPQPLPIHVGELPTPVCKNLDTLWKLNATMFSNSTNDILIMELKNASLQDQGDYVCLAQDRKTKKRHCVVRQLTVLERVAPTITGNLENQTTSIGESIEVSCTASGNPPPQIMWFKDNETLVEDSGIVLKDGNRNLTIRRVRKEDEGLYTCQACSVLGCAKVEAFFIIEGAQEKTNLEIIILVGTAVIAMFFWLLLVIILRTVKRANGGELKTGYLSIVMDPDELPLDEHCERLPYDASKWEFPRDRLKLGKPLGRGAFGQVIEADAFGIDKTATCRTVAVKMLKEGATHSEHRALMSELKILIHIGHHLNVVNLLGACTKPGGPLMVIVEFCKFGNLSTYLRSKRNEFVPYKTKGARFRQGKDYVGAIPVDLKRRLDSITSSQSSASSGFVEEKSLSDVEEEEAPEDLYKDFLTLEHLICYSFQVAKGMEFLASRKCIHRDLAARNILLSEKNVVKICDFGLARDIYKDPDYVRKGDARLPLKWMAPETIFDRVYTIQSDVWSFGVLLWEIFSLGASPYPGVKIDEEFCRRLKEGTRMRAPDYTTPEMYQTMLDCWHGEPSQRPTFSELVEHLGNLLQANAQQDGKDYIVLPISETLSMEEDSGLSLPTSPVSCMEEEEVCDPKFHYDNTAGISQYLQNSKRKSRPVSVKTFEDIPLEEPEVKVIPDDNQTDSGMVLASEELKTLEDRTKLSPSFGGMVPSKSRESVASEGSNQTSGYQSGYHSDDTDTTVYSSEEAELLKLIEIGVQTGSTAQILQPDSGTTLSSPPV

[7] = biological target: T1, A-Raf (Homo sapiens, UniProt P10398); experiment: Kinase activity assay, A-Raf
T1 sequence (P10398 1-606): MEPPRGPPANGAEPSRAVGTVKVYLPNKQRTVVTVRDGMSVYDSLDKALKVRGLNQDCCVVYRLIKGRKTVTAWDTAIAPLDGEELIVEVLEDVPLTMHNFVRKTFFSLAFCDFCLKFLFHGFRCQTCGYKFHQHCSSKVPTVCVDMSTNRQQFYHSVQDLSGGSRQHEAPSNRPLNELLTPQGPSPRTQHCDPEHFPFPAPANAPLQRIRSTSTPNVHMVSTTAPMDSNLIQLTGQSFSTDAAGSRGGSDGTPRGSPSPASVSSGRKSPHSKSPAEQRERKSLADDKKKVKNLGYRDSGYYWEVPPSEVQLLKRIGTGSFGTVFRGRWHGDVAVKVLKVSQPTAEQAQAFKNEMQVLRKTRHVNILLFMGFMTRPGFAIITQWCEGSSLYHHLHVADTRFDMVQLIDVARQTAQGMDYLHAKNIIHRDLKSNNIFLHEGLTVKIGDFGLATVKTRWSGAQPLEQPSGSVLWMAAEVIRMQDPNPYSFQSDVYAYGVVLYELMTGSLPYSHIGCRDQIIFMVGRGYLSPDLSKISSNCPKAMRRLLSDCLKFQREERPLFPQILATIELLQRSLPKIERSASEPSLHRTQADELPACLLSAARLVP

[8] = biological target: MAP4K4 (Homo sapiens, UniProt O95819); experiment: Kinase activity assay, MAP4K4
[9] = biological target: Btk (Homo sapiens, UniProt Q06187); experiment: Kinase activity assay, Btk
Chain of Btk (Q06187 whole entry): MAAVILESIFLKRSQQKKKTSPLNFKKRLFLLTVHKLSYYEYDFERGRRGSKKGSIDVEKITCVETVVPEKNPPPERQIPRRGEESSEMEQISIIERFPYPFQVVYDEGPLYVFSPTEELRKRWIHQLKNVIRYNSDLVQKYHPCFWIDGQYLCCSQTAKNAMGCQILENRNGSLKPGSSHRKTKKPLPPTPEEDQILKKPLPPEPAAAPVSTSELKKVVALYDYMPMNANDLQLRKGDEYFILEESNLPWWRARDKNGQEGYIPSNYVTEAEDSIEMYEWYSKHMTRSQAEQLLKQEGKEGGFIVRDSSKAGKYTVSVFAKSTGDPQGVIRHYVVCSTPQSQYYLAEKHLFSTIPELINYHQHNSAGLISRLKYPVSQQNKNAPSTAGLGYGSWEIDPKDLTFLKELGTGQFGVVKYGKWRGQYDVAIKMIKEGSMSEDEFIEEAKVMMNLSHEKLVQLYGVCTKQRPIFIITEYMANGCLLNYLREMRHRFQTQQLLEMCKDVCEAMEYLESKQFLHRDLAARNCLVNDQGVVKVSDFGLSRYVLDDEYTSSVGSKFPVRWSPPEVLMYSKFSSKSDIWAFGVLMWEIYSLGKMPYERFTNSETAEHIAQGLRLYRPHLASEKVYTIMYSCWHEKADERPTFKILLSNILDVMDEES

[10] = biological target: T2, TEC (Homo sapiens, UniProt P42680); experiment: Kinase activity assay, TEC
T2 sequence (P42680 1-631): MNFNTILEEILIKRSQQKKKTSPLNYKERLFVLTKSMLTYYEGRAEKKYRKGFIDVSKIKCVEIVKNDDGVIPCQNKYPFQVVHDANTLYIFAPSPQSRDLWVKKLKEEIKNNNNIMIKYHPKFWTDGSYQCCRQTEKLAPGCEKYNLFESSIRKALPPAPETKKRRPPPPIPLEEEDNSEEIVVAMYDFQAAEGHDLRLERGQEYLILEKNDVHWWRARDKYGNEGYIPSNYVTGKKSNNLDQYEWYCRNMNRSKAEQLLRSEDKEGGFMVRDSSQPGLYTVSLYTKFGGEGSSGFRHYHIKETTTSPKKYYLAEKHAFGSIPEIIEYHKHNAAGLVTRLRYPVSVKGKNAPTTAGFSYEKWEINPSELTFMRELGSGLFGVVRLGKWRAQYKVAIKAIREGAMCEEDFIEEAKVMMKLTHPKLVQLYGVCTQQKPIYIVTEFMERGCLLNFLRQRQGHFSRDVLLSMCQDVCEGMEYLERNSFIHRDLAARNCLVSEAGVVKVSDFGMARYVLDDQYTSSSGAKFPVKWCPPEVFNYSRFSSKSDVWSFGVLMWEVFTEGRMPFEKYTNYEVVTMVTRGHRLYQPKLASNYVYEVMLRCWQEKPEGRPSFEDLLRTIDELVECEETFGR

[11] = biological target: Fms (Homo sapiens, UniProt P07333); experiment: Kinase activity assay, Fms
[12] = biological target: Kit (Homo sapiens, UniProt P10721); experiment: Kinase activity assay, Kit
Chain of Kit (P10721 26-976): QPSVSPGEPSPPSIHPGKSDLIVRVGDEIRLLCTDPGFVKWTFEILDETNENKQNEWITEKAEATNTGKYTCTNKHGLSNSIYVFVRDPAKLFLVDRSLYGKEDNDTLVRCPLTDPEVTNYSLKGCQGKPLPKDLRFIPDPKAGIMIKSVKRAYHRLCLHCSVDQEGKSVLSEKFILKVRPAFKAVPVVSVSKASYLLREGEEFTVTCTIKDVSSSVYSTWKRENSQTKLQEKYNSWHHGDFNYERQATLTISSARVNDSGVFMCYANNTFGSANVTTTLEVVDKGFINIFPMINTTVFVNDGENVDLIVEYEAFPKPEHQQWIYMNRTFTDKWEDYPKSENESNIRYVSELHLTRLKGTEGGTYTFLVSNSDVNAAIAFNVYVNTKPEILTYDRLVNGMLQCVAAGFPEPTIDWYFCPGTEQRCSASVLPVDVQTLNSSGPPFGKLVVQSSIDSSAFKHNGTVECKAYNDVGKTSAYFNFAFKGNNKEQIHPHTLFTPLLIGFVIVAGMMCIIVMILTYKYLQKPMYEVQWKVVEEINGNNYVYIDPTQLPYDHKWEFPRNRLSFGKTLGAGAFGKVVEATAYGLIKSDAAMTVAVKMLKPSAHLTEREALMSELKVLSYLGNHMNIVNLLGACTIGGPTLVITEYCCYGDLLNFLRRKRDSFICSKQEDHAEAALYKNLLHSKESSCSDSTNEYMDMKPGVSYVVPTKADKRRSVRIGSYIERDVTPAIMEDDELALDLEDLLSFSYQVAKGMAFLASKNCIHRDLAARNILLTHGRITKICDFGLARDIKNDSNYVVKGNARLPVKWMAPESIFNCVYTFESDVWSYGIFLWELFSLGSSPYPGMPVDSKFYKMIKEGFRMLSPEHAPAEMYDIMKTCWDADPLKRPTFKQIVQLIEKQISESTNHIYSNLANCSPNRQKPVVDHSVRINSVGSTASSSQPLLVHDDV

[13] = biological target: Flt1 (Homo sapiens, UniProt P17948); experiment: Kinase activity assay, Flt1
[14] = biological target: PI3Kα (Homo sapiens, UniProt P42336); experiment: Kinase activity assay, PI3Kα

Chain of B-Raf V600E (P15056 whole entry V600E): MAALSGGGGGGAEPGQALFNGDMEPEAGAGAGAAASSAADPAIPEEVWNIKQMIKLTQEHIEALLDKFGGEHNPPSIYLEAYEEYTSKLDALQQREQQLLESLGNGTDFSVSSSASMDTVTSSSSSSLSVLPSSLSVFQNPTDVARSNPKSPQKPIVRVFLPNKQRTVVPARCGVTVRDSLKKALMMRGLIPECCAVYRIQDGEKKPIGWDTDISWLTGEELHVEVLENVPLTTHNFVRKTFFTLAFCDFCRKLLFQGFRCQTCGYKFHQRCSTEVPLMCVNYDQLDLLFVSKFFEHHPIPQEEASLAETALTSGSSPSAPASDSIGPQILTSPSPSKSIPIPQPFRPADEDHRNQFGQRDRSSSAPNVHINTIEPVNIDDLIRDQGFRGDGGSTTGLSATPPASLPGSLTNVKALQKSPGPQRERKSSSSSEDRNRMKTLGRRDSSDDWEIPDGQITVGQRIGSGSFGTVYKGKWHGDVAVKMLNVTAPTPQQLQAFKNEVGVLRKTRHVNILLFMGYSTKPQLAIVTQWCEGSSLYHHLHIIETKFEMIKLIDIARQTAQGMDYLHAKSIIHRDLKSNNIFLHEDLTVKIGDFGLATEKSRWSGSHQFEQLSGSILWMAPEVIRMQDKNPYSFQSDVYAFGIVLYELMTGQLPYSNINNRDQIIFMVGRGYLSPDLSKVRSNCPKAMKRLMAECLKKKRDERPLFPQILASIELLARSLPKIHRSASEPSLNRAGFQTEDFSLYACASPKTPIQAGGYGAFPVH
Chain of B-Raf (P15056 whole entry): as the sequence (P15056 whole entry V600E) above, with E600V counted along it

SMILES	IC50 [1]	IC50 [2]	IC50 [3]	IC50 [4]	IC50 [5]	IC50 [6]	IC50 [7]	IC50 [8]	IC50 [9]	IC50 [10]	IC50 [11]	IC50 [12]	IC50 [13]	IC50 [14]
COc1ccnc2[nH]cc(C(=O)c3cccc(NS(=O)(=O)c4ccc(C(F)(F)F)cc4)c3F)c12 [P-2060, N-[2-Fluoro-3-(4-methoxy-1H-pyrrolo[2,3-b]pyridine-3-carbonyl)-phenyl]-4-trifluoromethyl-benzenesulfonamide]	≤ 10 µM	≤ 10 µM	≤ 10 µM	≤ 10 µM	≤ 10 µM	≤ 10 µM								
COc1cnc2[nH]cc(C(=O)c3c(F)ccc(NS(=O)(=O)c4ncn[nH]4)c3F)c2c1 [P-2061, 2H-[1,2,4]Triazole-3-sulfonic acid [2,4-difluoro-3-(5-methoxy-1H-pyrrolo[2,3-b]pyridine-3-carbonyl)-phenyl]-amide]		≤ 10 µM	≤ 10 µM	≤ 10 µM	≤ 10 µM	≤ 10 µM	≤ 10 µM	≤ 10 µM						
Cn1cc(-c2cnc3[nH]cc(C(=O)c4cc(NS(=O)(=O)c5cccc(F)c5)ccc4F)c3c2)cn1 [P-2105, 3-Fluoro-N-{4-fluoro-3-[5-(1-methyl-1H-pyrazol-4-yl)-1H-pyrrolo[2,3-b]pyridine-3-carbonyl]-phenyl}-benzenesulfonamide]	≤ 10 µM	≤ 10 µM	≤ 10 µM	≤ 10 µM	≤ 10 µM	≤ 10 µM		≤ 10 µM	≤ 10 µM	≤ 10 µM	≤ 10 µM	≤ 10 µM	≤ 10 µM	
CCCS(=O)(=O)Nc1ccc(F)c(C(=O)c2c[nH]c3ncc(-c4ccc(S(=O)(=O)NC5CC5)cc4)cc23)c1F [P-2168, N-Cyclopropyl-4-{3-[2,6-difluoro-3-(propane-1-sulfonylamino)-benzoyl]-1H-pyrrolo[2,3-b]pyridin-5-yl}-benzenesulfonamide]	≤ 10 µM	≤ 10 µM	≤ 10 µM	≤ 10 µM	≤ 10 µM	≤ 10 µM			≤ 10 µM		≤ 10 µM	≤ 10 µM		
CCCS(=O)(=O)Nc1ccc(F)c(C(=O)c2c[nH]c3ncc(-c4ccn[nH]4)cc23)c1F [P-2176]	≤ 10 µM	≤ 10 µM	≤ 10 µM		≤ 10 µM	≤ 10 µM		≤ 10 µM	≤ 10 µM		≤ 10 µM	≤ 10 µM		
CCCS(=O)(=O)Nc1ccc(F)c(C(=O)c2c[nH]c3ncc(-c4ccc(NC(C)=O)nc4)cc23)c1F [P-2193, N-(5-{3-[2,6-Difluoro-3-(propane-1-sulfonylamino)-benzoyl]-1H-pyrrolo[2,3-b]pyridin-5-yl}-pyridin-2-yl)-acetamide]	≤ 10 µM	≤ 10 µM	≤ 10 µM	≤ 10 µM		≤ 10 µM		≤ 10 µM			≤ 10 µM	≤ 10 µM	≤ 10 µM	≤ 10 µM
CCCS(=O)(=O)Nc1ccc(F)c(C(=O)c2c[nH]c3ncc(CCCOC)cc23)c1F [P-2240, propane-1-sulfonic acid {2,4-difluoro-3-[5-(3-methoxy-propyl)-1H-pyrrolo[2,3-b]pyridine-3-carbonyl]-phenyl}-amide]	≤ 10 µM	≤ 10 µM	≤ 10 µM	≤ 10 µM	≤ 10 µM	≤ 10 µM	≤ 10 µM	≤ 10 µM				≤ 10 µM		
CCCCS(=O)(=O)Nc1ccc(F)c(C(=O)c2c[nH]c3ncc(-c4cnn(C)c4)cc23)c1F [P-2302, Butane-1-sulfonic acid {2,4-difluoro-3-[5-(1-methyl-1H-pyrazol-4-yl)-1H-pyrrolo[2,3-b]pyridine-3-carbonyl]-phenyl}-amide]	≤ 10 µM	≤ 10 µM	≤ 10 µM		≤ 10 µM	≤ 10 µM			≤ 10 µM	≤ 10 µM	≤ 10 µM	≤ 10 µM	≤ 10 µM	

Further lines, results first:

IC50 [1]	IC50 [2]	IC50 [3]	IC50 [4]	IC50 [5]	IC50 [6]	IC50 [7]	IC50 [8]	IC50 [9]	IC50 [10]	IC50 [11]	IC50 [12]	IC50 [13]	IC50 [14]	SMILES
≤ 10 µM	≤ 10 µM	≤ 10 µM		≤ 10 µM	≤ 10 µM			≤ 10 µM	≤ 10 µM	≤ 10 µM	≤ 10 µM		≤ 10 µM	CCCS(=O)(=O)Nc1ccc(F)c(C(=O)c2c[nH]c3ncc(-c4cn[nH]c4)cc23)c1F [P-2174, Propane-1-sulfonic acid {2,4-difluoro-3-[5-(1H-pyrazol-4-yl)-1H-pyrrolo[2,3-b]pyridine-3-carbonyl]-phenyl}-amide]
≤ 10 µM	≤ 10 µM	≤ 10 µM	≤ 10 µM		≤ 10 µM		≤ 10 µM	≤ 10 µM	≤ 10 µM	≤ 10 µM	≤ 10 µM	≤ 10 µM	≤ 10 µM	CCCS(=O)(=O)Nc1ccc(F)c(C(=O)c2c[nH]c3ncc(-c4ccc(N)nc4)cc23)c1F [P-2214, Propane-1-sulfonic acid {3-[5-(6-amino-pyridin-3-yl)-1H-pyrrolo[2,3-b]pyridine-3-carbonyl]-2,4-difluoro-phenyl}-amide]
≤ 10 µM	≤ 10 µM	≤ 10 µM	≤ 10 µM	≤ 10 µM	≤ 10 µM	≤ 10 µM	≤ 10 µM			≤ 10 µM	≤ 10 µM			CCCS(=O)(=O)Nc1ccc(F)c(C(=O)c2c[nH]c3ncc(C#CCOC)cc23)c1F [P-2239, Propane-1-sulfonic acid {2,4-difluoro-3-[5-(3-methoxy-prop-1-ynyl)-1H-pyrrolo[2,3-b]pyridine-3-carbonyl]-phenyl}-amide]
≤ 10 µM	≤ 10 µM	≤ 10 µM		≤ 10 µM	≤ 10 µM		≤ 10 µM			≤ 10 µM	≤ 10 µM			CCCCS(=O)(=O)Nc1ccc(F)c(C(=O)c2c[nH]c3ncc(-c4ccc(F)cc4)cc23)c1F [P-2301, Butane-1-sulfonic acid {2,4-difluoro-3-[5-(4-fluoro-phenyl)-1H-pyrrolo[2,3-b]pyridine-3-carbonyl]-phenyl}-amide]
≤ 10 µM	≤ 10 µM	≤ 10 µM		≤ 10 µM	≤ 10 µM					≤ 10 µM	≤ 10 µM			O=C(c1c(F)ccc(NS(=O)(=O)C(F)(F)F)c1F)c1c[nH]c2ncc(-c3ccc(F)cc3)cc12 [P-2344, N-{2,4-Difluoro-3-[5-(4-fluoro-phenyl)-1H-pyrrolo[2,3-b]pyridine-3-carbonyl]-phenyl}-C,C,C-trifluoro-methanesulfonamide]
≤ 10 µM	≤ 10 µM	≤ 10 µM		≤ 10 µM	≤ 10 µM			≤ 10 µM			≤ 10 µM			Cn1cc(-c2cnc3[nH]cc(C(=O)c4c(F)ccc(NS(=O)(=O)C(F)(F)F)c4F)c3c2)cn1 [P-2345, N-{2,4-Difluoro-3-[5-(1-methyl-1H-pyrazol-4-yl)-1H-pyrrolo[2,3-b]pyridine-3-carbonyl]-phenyl}-C,C,C-trifluoro-methanesulfonamide]
